In the NIST ThermoML archive (doi:10.1021/je400839x):

Experiment: xn = mol fraction of the nth substance listed
Settings: for viscosity / speed of sound / mass density: 101 kPa, Liquid; for viscosity: Concentric cylinders viscometry; for speed of sound: Pulse-echo method; for mass density: Vibrating tube method; for surface tension liquid-gas: 294 K, Pendant drop shape

CC(CC(C)(C)C)CC(C)(C)C [2,2,4,6,6-pentamethylheptane] + CCCCCCCCCCCCCCCC
Settings	mass density [kg/m3]	speed of sound [m/s]	viscosity [mPa·s]
293.15 K, x1 = 0.1261	770.6	1342.7	3.1
293.15 K, x1 = 0.2449	767.8	1327.4	2.79
293.15 K, x1 = 0.4087	763.6	1304.9	2.41
293.15 K, x1 = 0.562	759.5	1282.2	2.09
293.15 K, x1 = 0.7036	755.3	1259.1	1.8
293.15 K, x1 = 0.8368	751	1235.8	1.56
293.15 K, x1 = 1	745.5	1204	1.29
303.15 K, x1 = 0.1261	763.8	1305.2	2.47
303.15 K, x1 = 0.2449	760.9	1290	2.25
303.15 K, x1 = 0.4087	756.8	1267.4	1.97
303.15 K, x1 = 0.562	752.6	1244.5	1.72
303.15 K, x1 = 0.7036	748.3	1221.1	1.5
303.15 K, x1 = 0.8368	743.9	1197.4	1.31
303.15 K, x1 = 1	738.2	1164.9	1.1
313.15 K, x1 = 0.1261	756.8	1268.4	2.03
313.15 K, x1 = 0.2449	754	1253.3	1.86
313.15 K, x1 = 0.4087	749.8	1230.7	1.64
313.15 K, x1 = 0.562	745.6	1207.5	1.44
313.15 K, x1 = 0.7036	741.3	1183.8	1.27
313.15 K, x1 = 0.8368	736.8	1159.8	1.11
313.15 K, x1 = 1	730.9	1126.7	0.941
323.15 K, x1 = 0.1261	749.9	1232.5	1.68
323.15 K, x1 = 0.2449	747.1	1217.2	1.55
323.15 K, x1 = 0.4087	742.9	1194.6	1.38
323.15 K, x1 = 0.562	738.6	1171.2	1.23
323.15 K, x1 = 0.7036	734.2	1147.2	1.09
323.15 K, x1 = 0.8368	729.6	1122.9	0.966
323.15 K, x1 = 1	723.5	1089.3	0.827
333.15 K, x1 = 0.1261	742.9	–	1.42
333.15 K, x1 = 0.2449	740.1	–	1.32
333.15 K, x1 = 0.4087	735.8	–	1.18
333.15 K, x1 = 0.562	731.5	–	1.06
333.15 K, x1 = 0.7036	727	–	0.944
333.15 K, x1 = 0.8368	722.3	–	0.843
333.15 K, x1 = 1	716.1	–	0.726
343.15 K, x1 = 0.1261	735.9	–	1.22
343.15 K, x1 = 0.2449	733	–	1.14
343.15 K, x1 = 0.4087	728.7	–	1.02
343.15 K, x1 = 0.562	724.4	–	0.922
343.15 K, x1 = 0.7036	719.7	–	0.827
343.15 K, x1 = 0.8368	714.9	–	0.742
343.15 K, x1 = 1	708.6	–	0.643
353.15 K, x1 = 0.1261	728.8	–	1.06
353.15 K, x1 = 0.2449	725.9	–	0.988
353.15 K, x1 = 0.4087	721.5	–	0.894
353.15 K, x1 = 0.562	717.1	–	0.81
353.15 K, x1 = 0.7036	712.3	–	0.73
353.15 K, x1 = 0.8368	707.5	–	0.658
353.15 K, x1 = 1	700.9	–	0.573
363.15 K, x1 = 0.1261	721.7	–	0.928
363.15 K, x1 = 0.2449	718.8	–	0.87
363.15 K, x1 = 0.4087	714.4	–	0.791
363.15 K, x1 = 0.562	709.8	–	0.719
363.15 K, x1 = 0.7036	704.9	–	0.651
363.15 K, x1 = 0.8368	700	–	0.589
363.15 K, x1 = 1	693.2	–	0.515
373.15 K, x1 = 0.1261	714.5	–	0.823
373.15 K, x1 = 0.2449	711.7	–	0.773
373.15 K, x1 = 0.4087	707.1	–	0.706
373.15 K, x1 = 0.562	702.5	–	0.644
373.15 K, x1 = 0.7036	697.5	–	0.585
373.15 K, x1 = 0.8368	692.3	–	0.531
373.15 K, x1 = 1	685.5	–	0.467

Settings	surface tension liquid-gas [mN/m]
x1 = 0.1261	25.9
x1 = 0.2449	25.3
x1 = 0.4087	24.3
x1 = 0.562	23.8
x1 = 0.7036	23.1
x1 = 0.8368	22.5
x1 = 1	21.8
